Earlier results as cited in patent US8691514B2, “Method for selective control of helper T cell function” (Japan Science and Technology Agency, priority 2008, dated 2014).

Key:
[1] = system: CD8 positive T cell; details: treated with GlcCer synthetase inhibitor; Nagafuku et al. 2003, Blank et al. 2005
[2] = system: CD4 positive T cell; details: treated with GlcCer synthetase inhibitor; Nagafuku et al. 2003, Blank et al. 2005

CCCCCCCCCC(=O)N[C@H](CN1CCOCC1)[C@H](O)c1ccccc1.Cl [D-PDMP, D-threo-1-phenyl-2-decanoylamiono-3-morpholino-1-prppanol.HCl]
function of the CD8 positive T cell [1]: suppressed
function of the CD4 positive T cell [2]: suppressed
